According to US9526730B2, “Use of a DPP-4 inhibitor in podocytes related disorders and/or nephrotic syndrome” (Boehringer Ingelheim International GmbH, priority 2012, dated 2016):

Assays:
[1] = system: rats with 5/6 nephrectomy; assay: Rat model of chronic kidney disease (5/6 nephrectomy), 130 days; details: for glomerulosclerosis (glomerulosclerosic index) / decrease of glomerular size vs PBO-treated 5/6 NX rats / decrease of interstitial fibrosis vs PBO-treated 5/6 NX rats: 130 days; for osteopontin vs PBO-treated 5/6 NX rats: plasma biomarker
[2] = Safety and tolerability in people with type 2 diabetes
[3] = Pooled analysis of seven placebo-controlled trials: UACR in elderly (>=65 years) T2D patients with diabetic nephropathy (set 2); type: in vivo, human
Protocol: (§1) Seven randomised, double-blind, placebo-controlled trials (duration 24-52 weeks) of linagliptin (5 mg q.d.) as monotherapy or add-on to various glucose-lowering background therapies had data available for urinary albumin-to-creatinine ratio (UACR) and were eligible for this analysis (n=4113). Data after 24 weeks of treatment were generated to allow pooling and two sets were defined: 1) Diabetic nephropathy in earlier stages of T2D (with and without oral glucose-lowering background therapies, such as e.g. linagliptin monotherapy, linagliptin add-on to metformin or linagliptin add-on to metformin plus a sulphonylurea, or linagliptin plus metformin initial combination): participants from four 24-week pivotal phase III trials if they had persistent albuminuria, defined as 30≦UACR≦3000 mg/g (eGFR>30 ml/min/1.73 m^2) and stable treatment with an angiotensin-converting enzyme inhibitor (ACEi) or angiotensin II receptor blocker (ARB) at baseline (ongoing treatment with ACEi or ARB); 2) Diabetic nephropathy in elderly patients (various glucose-lowering background therapies including insulin, such as e.g. linagliptin monotherapy, linagliptin add-on to metformin or linagliptin add-on to metformin plus a sulphonylurea, or linagliptin plus metformin initial combination, or linagliptin in combination with basal insulin): patients from all seven trials, fulfilling UACR criteria 30≦UACR≦3000 mg/g (eGFR>30 ml/min/1.73 m^2) and aged ≧65 years (with or without ongoing treatment with ACEi or ARB). The endpoint in both sets was the percentage change in geometric mean UACR after 24 weeks.

[4] = Meta-analysis of 13 phase 3 placebo-controlled trials: renal safety and outcomes in 5466 patients with type 2 diabetes
From the text: The aim of this study was to evaluate renal safety/outcomes with linagliptin in phase 3, randomized, double-blind, placebo-controlled trials (≧12 wks).

[5] = Pharmacokinetics of BI 1356, multiple oral doses once daily for 12 days in patients with type 2 diabetes; details: for feT,ss: steady state (Day 12); for feT,ss / fe0-24: gMean; for fe0-24: fraction excreted in urine
[6] = Pooled analysis of four 24-week placebo-controlled trials: albuminuria (UACR) in T2D patients with early diabetic nephropathy on stable ACE/ARB (set 1); type: in vivo, human
From the text: Despite optimal therapy, people with type 2 diabetes (T2D) remain at high risk for kidney damage, manifest as albuminuria, and many develop progressive renal failure. Further, despite optimal therapy with inhibitors of the renin-angiotensin-aldosterone systeme (RAAS), patients with type 2 diabetes mellitus (T2DM) remain at an increased risk of progressive renal failure and cardiovascular disease, for which album inuria has emerged as a predictive biomarker. Linagliptin, a DPP-4 inhibitor, has previously shown evidence of albumin lowering on top of telmisartan in mice. We explored the clinical effect of linagliptin on albuminuria in T2D patients with early diabetic nephropathy. Four randomized, double-blind, 24-week, placebo-controlled trials of linagliptin (5 mg qd) on no, mono, or dual oral glucose-lowering background therapy (such as e.g. linagliptin monotherapy, linagliptin add-on to metformin or linagliptin add-on to metformin plus a sulphonylurea, or linagliptin plus metformin initial combination) had data available for urinary albumin-to-creatinine ratio (UACR) and were pooled for analysis (n=2472). Participants were included in this analysis if they had: i) 30≦UACR≦3000 mg/g creatinine; ii) stable treatment with ACE/ARBs ≧4 weeks prior and during the trial; and iii) eGFR>30 ml/min/1.73 m^2. The endpoint was the percentage change in geometric mean UACR. In this analysis, 492 (19.9%) patients met UACR and eGFR thresholds of whom 46% received stable ACE/ARB therapy (linagliptin n=168; placebo n=59). Mean baseline A1C and median UACR were 8.2% vs 8.5% and 76 vs 78 mg/g creatinine for the linagliptin and placebo groups, respectively. After 24 weeks, placebo-corrected changes in A1C and FPG were −0.71% and −26 mg/dl, respectively (both p<0.0001). […] Overall, kidney function and blood pressure were unchanged although more patients on placebo received new anti-hypertensive drugs (17% vs 11% with linagliptin). […] Linagliptin may have kidney-protective properties beyond glucose-lowering effects. This protective effect may be independent of race. Linagliptin may be useful for treating or lowering albuminuria on top of standard of care of angiotensin-converting enzyme (ACE) inhibition or angiotensin II receptor blockade (ARB) in T2DM patients with early diabetic nephropathy.
as §1

diabetic db/db mice = assay: Diabetic nephropathy model: male diabetic db/db mice treated for 12 weeks (renal histology, immunohistochemistry, albumin excretion); type: in vivo, mouse; details: for effect on fasted or post-prandial glucose levels / Podocalyxin expression (glomerular staining score 0-3): 12 weeks; for Podocalyxin expression (glomerular staining score 0-3): linagliptin 3 mg/kg/day, enalapril 20 mg/kg/day, db/db vehicle 1.59±0.2, db/+ 2.65±0.1; for glomerular mesangial matrix expansion compared with diabetic vehicle / tubulointerstitial fibrosis compared with diabetic vehicle: histology
Protocol: The expression of podocalyxin is analyzed by immunohistochemistry using a podocalyxin specific antibody. Kidney sections from male diabetic db/db mice (10 weeks old at start and treated for 3 months) in the following groups are analyzed:
Diabetic control (n=10), linagliptin 3 mg/kg (n=8), enalapril 20 mg/kg (n=10) and heterozygous control mice (n=8).
All of the evaluations of the glomerular staining intensities are done semiquantitatively by two different experts of kidney pathology blinded for the slides.
The predefined scoring gradient is 0, 1, 2, and 3. 0 means no expression, whereas 3 is given when expression is highest. Group means are compared with a non-parametric test. P values less than 0.05 are considered significant.
Diabetic nephropathy is the main cause of end-stage renal disease. This study investigated the effects of linagliptin on diabetic nephropathy in severe insulin-resistant and old db/db mice as a model for diabetic nephropathy. Male diabetic db/db mice (10 weeks) were divided into 3 groups and treated for 12 weeks with vehicle (n=10), linagliptin 3 mg/kg/day (n=8), or the angiotensin converting enzyme (ACE) inhibitor enalapril 20 mg/kg/day (n=10).
Heterozygous db/+ mice treated with vehicle were used as controls (n=8). Levels of glucose, triglycerides, insulin, cystatin C and creatinine were analyzed in serum and urine samples at baseline and monthly thereafter. Body weight, urinary albumin excretion and OGTT were monitored periodically.
Renal histology (glomerulosclerosis, tubulointerstitial fibrosis) and expression of the sialoglycoprotein podocalyxin (a marker of podocyte integrity in the glomeruli, marker for glomerular damage), glucagon-like peptide 1 receptor (GLP-1R), alpha-smooth muscle actin and type I collagen were evaluated at the end of the study.

[7] = LIN 0.083 mg/kg in chow, TEL 5 mg/kg/d in drinking water
[8] = linagliptin 5 mg qd, after 24 weeks, set 1

CC#CCn1c(N2CCC[C@@H](N)C2)nc2c1c(=O)n(Cc1nc(C)c3ccccc3n1)c(=O)n2C [linagliptin]
Blood pressure lowering ([1]; 5/6 NX rats): unaffected | glomerulosclerosis (glomerulosclerosic index) ([1]; 5/6 NX rats): trend towards decreased | decrease of glomerular size vs PBO-treated 5/6 NX rats [1, 7]: 18% | decrease of interstitial fibrosis vs PBO-treated 5/6 NX rats [1, 7]: 48% | osteopontin vs PBO-treated 5/6 NX rats [1]: decreases | plasma concentration of B2M vs PBO-treated 5/6 NX rats ([1]; rat, in vivo): decreases | plasma concentration of TIMP-1 vs PBO-treated 5/6 NX rats ([1]; rat, in vivo): decreases | safety and tolerability [2]: placebo-like | blood pressure and renal function ([3]; all seven studies): not affected to a clinically meaningful extent | treatment duration at which overall UACR effect occurs ([3]; as early as): 12 weeks | reduction of UACR versus placebo (trend) ([3]; linagliptin 5 mg q.d., 24 weeks, set 2): −25% | lowering of adjusted UACR ([3]; linagliptin 5 mg q.d., 24 weeks, set 2, aged >=65 years): 30% | patients with composite renal endpoint events (number) ([4]; linagliptin 5 mg qd, n=3505, placebo 306): 448 patients | patients with composite renal endpoint events (proportion) ([4]; linagliptin 5 mg qd, placebo 15.6%): 12.8% | HR for the composite endpoint ([4]; patients <65 yrs): 0.77 | HR for the composite endpoint ([4]; patients >65 yrs): 1.04 | RR change: ARF ([4]; vs placebo): −7% | RR change: death ([4]; vs placebo): −23% | RR change: macroalbuminuria ([4]; vs placebo): −12% | RR change: microalbuminuria ([4]; vs placebo): −15% | RR change: new onset of CKD ([4]; vs placebo): −56% | RR change: worsening of CKD ([4]; vs placebo): −24% | feT,ss ([5]; 1 mg oral once daily): 3.34% | feT,ss ([5]; 2.5 mg oral once daily): 3.06% | fe0-24 ([5]; 2.5 mg oral once daily): 0.139% | feT,ss ([5]; 5 mg oral once daily): 6.27% | fe0-24 ([5]; 5 mg oral once daily): 0.453% | feT,ss ([5]; 10 mg oral once daily): 3.22% | fe0-24 ([5]; 10 mg oral once daily): 0.919% | mean accumulation ratio RA,AUC ([5]; doses above 1 mg once daily): ≤ 1.4 | excretion of unchanged drug ([5]; human, in vivo): primarily excreted unchanged via the bile | excretion via the kidney ([5]; therapeutic oral dose levels): < 7 % of the administered oral dose | main route of excretion ([5]; therapeutic oral dose levels): mainly excreted via the liver | kidney function and blood pressure ([6]; 24 weeks): unchanged | lowering of adjusted UACR (geometric mean) ([6]; linagliptin 5 mg qd, 24 weeks, on stable ACE/ARB, set 1): 33% | between group difference vs placebo in UACR ([6]; linagliptin 5 mg qd, 24 weeks, set 1): −29% | placebo-corrected change in A1C (HbA1c) [6, 8]: −0.71% | placebo-corrected change in FPG [6, 8]: -26 mg/dL | placebo-corrected change in fasting plasma glucose [6, 8]: -1.4 mmol/L | expression of α-smooth muscle actin-positive myofibroblasts in interstitium and glomeruli (diabetic db/db mice): normalized | effect on fasted or post-prandial glucose levels (diabetic db/db mice): limited effects | Podocalyxin expression (glomerular staining score 0-3) (diabetic db/db mice): 2.3±0.2 | loss of podocytes (podocalyxin staining) (diabetic db/db mice; blood glucose independent): significantly reduces | glomerular mesangial matrix expansion compared with diabetic vehicle (diabetic db/db mice; p<0.05): reduced almost to control levels | tubulointerstitial fibrosis compared with diabetic vehicle (diabetic db/db mice; p<0.05): reduced almost to control levels | GLP-1R expression in the glomeruli (immunohistochemical staining) (diabetic db/db mice; linagliptin 3 mg/kg/day 12 weeks, vehicle db/db 1.67±0.07, healthy 2.15±0.1): 1.90±0.04 | Urinary albumin excretion rates compared with enalapril-treated mice (diabetic db/db mice; p<0.05): significantly decreased | tubulointerstitial fibrosis compared with enalapril-treated mice (diabetic db/db mice; p<0.05): significantly decreased

CCOC(=O)[C@H](CCc1ccccc1)N[C@@H](C)C(=O)N1CCC[C@H]1C(=O)O [enalapril, reference compound]
effect on fasted or post-prandial glucose levels (diabetic db/db mice): limited effects | Podocalyxin expression (glomerular staining score 0-3) (diabetic db/db mice): 2.4±0.2 | glomerular mesangial matrix expansion compared with diabetic vehicle (diabetic db/db mice; p<0.05): reduced almost to control levels | tubulointerstitial fibrosis compared with diabetic vehicle (diabetic db/db mice; p<0.05): reduced almost to control levels

CCCc1nc2c(C)cc(-c3nc4ccccc4n3C)cc2n1Cc1ccc(-c2ccccc2C(=O)O)cc1 [telmisartan, reference compound]
Blood pressure lowering ([1]; 5/6 NX rats): 31 mmHg | TGF-β expression ([1]; 5/6 NX rats): significantly decreases | glomerulosclerosis (glomerulosclerosic index) ([1]; 5/6 NX rats): trend towards decreased | decrease of urinary albumin/creatinine ratio vs PBO-treated 5/6 NX rats [1, 7]: 92% | decrease of glomerular size vs PBO-treated 5/6 NX rats [1, 7]: not significantly | decrease of interstitial fibrosis vs PBO-treated 5/6 NX rats [1, 7]: 24% | osteopontin vs PBO-treated 5/6 NX rats [1]: significantly decreases
